According to article PMC12446476 (Nature Communications, 2025):
In brackets after ≈: the same amount, converted by molar mass. Where two headings read alike, the source gives them in different places.

System: N. gonorrhoeae
Assay: MIC determination, Etest
Format: cell-based, Neisseria gonorrhoeae
Details: for MIC: Neisseria gonorrhoeae
Source text: The 2024 WHO N. gonorrhoeae reference strains were used for quality control. Only whole MIC doubling dilutions are reported. Clinical breakpoints or the epidemiological cutoff (ECOFF, to indicate azithromycin resistance) from EUCAST (v14.0, https://www.eucast.org/clinical_breakpoints) were used to classify isolates as antimicrobial susceptible or resistant. […] Two times the standard inoculum defined by CLSI was used to establish consistent growth in untreated control samples for some strains. In vitro time-kill assays were performed according to CLSI guidelines[65] using Columbia Broth (BD Difco) supplemented with 1% IsoVitaleX Enrichment (BD). Viable bacterial counts were generated by plating 10-fold serially diluted samples on GC agar plates containing 1% IsoVitaleX Enrichment (BD).

CC[C@H]1OC(=O)[C@H](C)[C@@H](O[C@H]2C[C@@](C)(OC)[C@@H](O)[C@H](C)O2)[C@H](C)[C@@H](O[C@@H]2O[C@H](C)C[C@H](N(C)C)[C@H]2O)[C@](C)(O)C[C@@H](C)CN(C)[C@H](C)[C@@H](O)[C@]1(C)O [Azithromycin]
percent of isolates resistant (100 contemporary clinical N. gonorrhoeae isolates, EUCAST): 2% | MIC (WHO F, Etest, read-out: MIC): 0.25 µg/mL (≈ 0.334 µM) | MIC (WHO H, Etest, read-out: MIC): 0.25 µg/mL (≈ 0.334 µM) | MIC (WHO K, Etest, read-out: MIC): 0.5 µg/mL (≈ 0.668 µM) | MIC (WHO L, Etest, read-out: MIC): 1 µg/mL (≈ 1.34 µM) | MIC (WHO M, Etest, read-out: MIC): 0.5 µg/mL (≈ 0.668 µM) | MIC (WHO O, Etest, read-out: MIC): 0.5 µg/mL (≈ 0.668 µM) | MIC (WHO P, Etest, read-out: MIC): 4 µg/mL (≈ 5.34 µM) | MIC (WHO Q, Etest, read-out: MIC): < 256 µg/mL | MIC (WHO R, Etest, read-out: MIC): 0.5 µg/mL (≈ 0.668 µM) | MIC (WHO S2, Etest, read-out: MIC): 2 µg/mL (≈ 2.67 µM) | MIC (WHO U, Etest, read-out: MIC): 4 µg/mL (≈ 5.34 µM) | MIC (WHO V, Etest, read-out: MIC): > 256 µg/mL | MIC (WHO X, Etest, read-out: MIC): 0.5 µg/mL (≈ 0.668 µM) | MIC (WHO Y, Etest, read-out: MIC): 1 µg/mL (≈ 1.34 µM) | MIC (WHO Z, Etest, read-out: MIC): 1 µg/mL (≈ 1.34 µM) | MIC (comparator antibiotics, clinical N. gonorrhoeae isolate 1, Sweden 2023, read-out: Minimum inhibitory concentration): 0.25 µg/mL (≈ 0.334 µM) | MIC (comparator antibiotics, clinical N. gonorrhoeae isolate 2, Sweden 2023, read-out: Minimum inhibitory concentration): 0.125 µg/mL (≈ 0.167 µM) | MIC (comparator antibiotics, clinical N. gonorrhoeae isolate 3, Sweden 2023, read-out: Minimum inhibitory concentration): 0.25 µg/mL (≈ 0.334 µM) | MIC (comparator antibiotics, clinical N. gonorrhoeae isolate 4, Sweden 2023, read-out: Minimum inhibitory concentration): 0.5 µg/mL (≈ 0.668 µM) | MIC (comparator antibiotics, clinical N. gonorrhoeae isolate 5, Sweden 2023, read-out: Minimum inhibitory concentration): 0.064 µg/mL (≈ 0.0854 µM) | MIC (comparator antibiotics, clinical N. gonorrhoeae isolate 6, Sweden 2023, read-out: Minimum inhibitory concentration): 0.064 µg/mL (≈ 0.0854 µM) | MIC (comparator antibiotics, clinical N. gonorrhoeae isolate 7, Sweden 2023, read-out: Minimum inhibitory concentration): 0.125 µg/mL (≈ 0.167 µM) | MIC (comparator antibiotics, clinical N. gonorrhoeae isolate 8, Sweden 2023, read-out: Minimum inhibitory concentration): 0.064 µg/mL (≈ 0.0854 µM) | MIC (comparator antibiotics, clinical N. gonorrhoeae isolate 9, Sweden 2023, read-out: Minimum inhibitory concentration): 0.25 µg/mL (≈ 0.334 µM) | MIC (comparator antibiotics, clinical N. gonorrhoeae isolate 10, Sweden 2023, read-out: Minimum inhibitory concentration): 0.125 µg/mL (≈ 0.167 µM) | MIC (comparator antibiotics, clinical N. gonorrhoeae isolate 11, Sweden 2023, read-out: Minimum inhibitory concentration): 0.25 µg/mL (≈ 0.334 µM) | MIC (comparator antibiotics, clinical N. gonorrhoeae isolate 12, Sweden 2023, read-out: Minimum inhibitory concentration): 0.125 µg/mL (≈ 0.167 µM) | MIC (comparator antibiotics, clinical N. gonorrhoeae isolate 13, Sweden 2023, read-out: Minimum inhibitory concentration): 0.064 µg/mL (≈ 0.0854 µM) | MIC (comparator antibiotics, clinical N. gonorrhoeae isolate 14, Sweden 2023, read-out: Minimum inhibitory concentration): 0.064 µg/mL (≈ 0.0854 µM) | MIC (comparator antibiotics, clinical N. gonorrhoeae isolate 15, Sweden 2023, read-out: Minimum inhibitory concentration): 0.25 µg/mL (≈ 0.334 µM) | MIC (comparator antibiotics, clinical N. gonorrhoeae isolate 16, Sweden 2023, read-out: Minimum inhibitory concentration): 0.25 µg/mL (≈ 0.334 µM) | MIC (comparator antibiotics, clinical N. gonorrhoeae isolate 17, Sweden 2023, read-out: Minimum inhibitory concentration): 0.25 µg/mL (≈ 0.334 µM) | MIC (comparator antibiotics, clinical N. gonorrhoeae isolate 18, Sweden 2023, read-out: Minimum inhibitory concentration): 0.032 µg/mL (≈ 0.0427 µM) | MIC (comparator antibiotics, clinical N. gonorrhoeae isolate 19, Sweden 2023, read-out: Minimum inhibitory concentration): 0.25 µg/mL (≈ 0.334 µM) | MIC (comparator antibiotics, clinical N. gonorrhoeae isolate 20, Sweden 2023, read-out: Minimum inhibitory concentration): 0.5 µg/mL (≈ 0.668 µM) | MIC (comparator antibiotics, clinical N. gonorrhoeae isolate 21, Sweden 2023, read-out: Minimum inhibitory concentration): 0.5 µg/mL (≈ 0.668 µM) | MIC (comparator antibiotics, clinical N. gonorrhoeae isolate 22, Sweden 2023, read-out: Minimum inhibitory concentration): 0.125 µg/mL (≈ 0.167 µM) | MIC (comparator antibiotics, clinical N. gonorrhoeae isolate 23, Sweden 2023, read-out: Minimum inhibitory concentration): 0.125 µg/mL (≈ 0.167 µM) | MIC (comparator antibiotics, clinical N. gonorrhoeae isolate 24, Sweden 2023, read-out: Minimum inhibitory concentration): 0.25 µg/mL (≈ 0.334 µM) | MIC (comparator antibiotics, clinical N. gonorrhoeae isolate 25, Sweden 2023, read-out: Minimum inhibitory concentration): 0.064 µg/mL (≈ 0.0854 µM) | MIC (comparator antibiotics, clinical N. gonorrhoeae isolate 26, Sweden 2023, read-out: Minimum inhibitory concentration): 0.25 µg/mL (≈ 0.334 µM) | MIC (comparator antibiotics, clinical N. gonorrhoeae isolate 27, Sweden 2023, read-out: Minimum inhibitory concentration): 0.125 µg/mL (≈ 0.167 µM) | MIC (comparator antibiotics, clinical N. gonorrhoeae isolate 28, Sweden 2023, read-out: Minimum inhibitory concentration): 0.016 µg/mL (≈ 0.0214 µM) | MIC (comparator antibiotics, clinical N. gonorrhoeae isolate 29, Sweden 2023, read-out: Minimum inhibitory concentration): 0.25 µg/mL (≈ 0.334 µM) | MIC (comparator antibiotics, clinical N. gonorrhoeae isolate 30, Sweden 2023, read-out: Minimum inhibitory concentration): 0.125 µg/mL (≈ 0.167 µM) | MIC (comparator antibiotics, clinical N. gonorrhoeae isolate 31, Sweden 2023, read-out: Minimum inhibitory concentration): 0.064 µg/mL (≈ 0.0854 µM) | MIC (comparator antibiotics, clinical N. gonorrhoeae isolate 32, Sweden 2023, read-out: Minimum inhibitory concentration): 0.064 µg/mL (≈ 0.0854 µM) | MIC (comparator antibiotics, clinical N. gonorrhoeae isolate 33, Sweden 2023, read-out: Minimum inhibitory concentration): 0.125 µg/mL (≈ 0.167 µM) | MIC (comparator antibiotics, clinical N. gonorrhoeae isolate 34, Sweden 2023, read-out: Minimum inhibitory concentration): 0.125 µg/mL (≈ 0.167 µM) | MIC (comparator antibiotics, clinical N. gonorrhoeae isolate 35, Sweden 2023, read-out: Minimum inhibitory concentration): 0.25 µg/mL (≈ 0.334 µM) | MIC (comparator antibiotics, clinical N. gonorrhoeae isolate 36, Sweden 2023, read-out: Minimum inhibitory concentration): 0.5 µg/mL (≈ 0.668 µM) | MIC (comparator antibiotics, clinical N. gonorrhoeae isolate 37, Sweden 2023, read-out: Minimum inhibitory concentration): 0.125 µg/mL (≈ 0.167 µM) | MIC (comparator antibiotics, clinical N. gonorrhoeae isolate 38, Sweden 2023, read-out: Minimum inhibitory concentration): 0.032 µg/mL (≈ 0.0427 µM) | MIC (comparator antibiotics, clinical N. gonorrhoeae isolate 39, Sweden 2023, read-out: Minimum inhibitory concentration): 0.125 µg/mL (≈ 0.167 µM) | MIC (comparator antibiotics, clinical N. gonorrhoeae isolate 40, Sweden 2023, read-out: Minimum inhibitory concentration): 0.064 µg/mL (≈ 0.0854 µM) | MIC (comparator antibiotics, clinical N. gonorrhoeae isolate 41, Sweden 2023, read-out: Minimum inhibitory concentration): 0.25 µg/mL (≈ 0.334 µM) | MIC (comparator antibiotics, clinical N. gonorrhoeae isolate 42, Sweden 2023, read-out: Minimum inhibitory concentration): 0.032 µg/mL (≈ 0.0427 µM) | MIC (comparator antibiotics, clinical N. gonorrhoeae isolate 43, Sweden 2023, read-out: Minimum inhibitory concentration): 0.5 µg/mL (≈ 0.668 µM) | MIC (comparator antibiotics, clinical N. gonorrhoeae isolate 44, Sweden 2023, read-out: Minimum inhibitory concentration): 0.5 µg/mL (≈ 0.668 µM) | MIC (comparator antibiotics, clinical N. gonorrhoeae isolate 45, Sweden 2023, read-out: Minimum inhibitory concentration): 0.064 µg/mL (≈ 0.0854 µM) | MIC (comparator antibiotics, clinical N. gonorrhoeae isolate 46, Sweden 2023, read-out: Minimum inhibitory concentration): 0.032 µg/mL (≈ 0.0427 µM) | MIC (comparator antibiotics, clinical N. gonorrhoeae isolate 47, Sweden 2023, read-out: Minimum inhibitory concentration): 0.125 µg/mL (≈ 0.167 µM) | MIC (comparator antibiotics, clinical N. gonorrhoeae isolate 48, Sweden 2023, read-out: Minimum inhibitory concentration): 0.125 µg/mL (≈ 0.167 µM) | MIC (comparator antibiotics, clinical N. gonorrhoeae isolate 49, Sweden 2023, read-out: Minimum inhibitory concentration): 0.5 µg/mL (≈ 0.668 µM)
